US20240336615A1, “CYCLOPROPYL-(HETERO)ARYL-SUBSTITUTED ETHYL-SULFOXIME-PYRIDINE DERIVATIVES” (Boehringer Ingelheim Vetmedica GmbH, priority 2023, published 2024)
pEC50: −log10 of the molar value.

Tests used:
[1] = system: Plutella xylostella; test: Insecticidal test on Plutella xylostella (Example 15); type: in vivo; conditions: 144 h, Chinese cabbage seedling dip, 6 days after dip treatment, read-out: activity level (corrected mortality rate)
Protocol: The compounds of formula (I), (Ia) and/or (Ib) of the present invention or salts thereof are separately dispersed in water and diluted to 500 ppm and 50 ppm. Ten adults of Plutella xylostella are released onto Chinese cabbage seedlings and allowed to lay eggs thereon. 2 days after the release of the adults, the seedling is dipped in the dispersion for about 30 seconds. After air dried, the seedling is kept in a room at 25° C. 6 days after the dip treatment, the numbers of the dead and alive insects are counted. The corrected mortality rate is calculated according to the following formula and the insecticidal activity is evaluated according to the following criteria.

[2] = system: adult Ctenocephalides felis fleas; test: Contact activity against adult Ctenocephalides felis (Example 4); conditions: adult C. felis, coated pipe cleaner in vial, 72 hours post-treatment, read-out: EC50 (contact activity, percentage mortality)
Protocol: Compounds of formulae (I), (Ia) and/or (Ib) dissolved in 100% DMSO are diluted in acetone to a desired concentration. The resulting formulation is used to coat the fibers of a 0.5-inch-long piece of pipe cleaner placed in a glass scintillation vial. The vial is capped with a rubber gasket and filter paper insert. After the acetone has evaporated, ten adult Ctenocephalides felis fleas are added to each vial. The vials are then incubated at 22° C., 80% relative humidity, and 12 hours of light/12 hours of dark until a visual evaluation for mortality is performed at 72 hours post-treatment. Compound efficacy at a given dose is expressed as percentage mortality and adjusted to remove background mortality observed in control vials containing DMSO only. A dose response series of treated vials is implemented to determine EC50 values.

[3] = system: Spodoptera litura; test: Insecticidal test on Spodoptera litura (Example 14); type: in vivo; conditions: foliar, 192 h, cabbage leaf dip, 2nd-instar larvae, 8 days after inoculation, read-out: activity level (corrected mortality rate)
Protocol: The compounds of formula (I), (Ia) and/or (Ib) of the present invention or salts thereof are separately dispersed in water and diluted to 500 ppm and 50 ppm. Cabbage leaves are dipped in the dispersion for about 30 seconds. After air dried, the leaves are placed in a plastic Petri dish with a diameter of 9 cm and inoculated with ten 2nd-instar larvae of Spodoptera litura, after which the dish is closed and then allowed to stand in a room at 25° C. 8 days after the inoculation, the numbers of the dead and alive insects are counted. The corrected mortality rate is calculated according to the following formula and the insecticidal activity is evaluated according to the following criteria.
[formula] [formula] • A: the corrected mortality rate is 100% • B: the corrected mortality rate is 90 to 99% • C: the corrected mortality rate is 80 to 89% • D: the corrected mortality rate is 50 to 79%

[4] = system: Myzus persicae; test: Insecticidal test on Myzus persicae (Example 17); type: in vivo; conditions: 144 h, foliar application on Chinese cabbage, 6 days after application, read-out: control efficacy level (control rate)
From the text: The compounds of formula (I), (Ia) and/or (Ib) of the present invention or salts thereof are separately dispersed in water and diluted to 500 ppm and 50 ppm. Chinese cabbage plants are planted in plastic pots (diameter: 8 cm, height: 8 cm). Aphids (Myzus persicae) are propagated on the plants and then the number of surviving aphids is counted. The dispersion is applied to the foliage of the potted plants. After the plants are air dried, these are kept in a greenhouse. 6 days after the application, the number of the alive insects is counted on the plants. The control rate is calculated according to the following formula and the control efficacy is evaluated according to the following criteria. [formula] • Ta: the number of alive insects before the foliar application in a treated plot • T: the number of alive insects after the foliar application in a treated plot • Ca: the number of alive insects before the foliar application in an untreated plot • C: the number of alive insects after the foliar application in an untreated plot • A: the control rate is 100% • B: the control rate is 90 to 99% • C: the control rate is 80 to 89% • D: the control rate is 50 to 79%

[5] = system: adult C. felis fleas; test: Ingestion activity against adult Ctenocephalides felis, membrane feeding, alternative method (Examples 7 and 13); conditions: Ctenocephalides felis
Protocol: Selected compounds of formula (I), (Ia) and (Ib) and compound “125” of WO 2021/033141 dissolved in 100% DMSO are diluted in bovine blood with sodium heparin anti-coagulant. The resulting formulation is offered via an artificial membrane feeding system to approximately 15 adult C. felis fleas previously dispensed into 24-well plates. The plates are then incubated in a double-chambered device. Visual evaluation for mortality is performed at 48 hours post-treatment. Compound efficacy at a given dose is expressed as percentage mortality and determined by normalization to positive and negative controls. A dose response series is implemented to determine EC50 values.
Compounds of formulae (I), (Ia) and/or (Ib) dissolved in 100% DMSO are diluted in bovine blood with sodium heparin anti-coagulant. The resulting formulation is offered via an artificial membrane feeding system to approximately 15 adult C. felis fleas previously dispensed into 24-well plates. The plates are then incubated in a double-chambered device. Visual evaluation for mortality is performed at 48 hours post-treatment. Compound efficacy at a given dose is expressed as percentage mortality and determined by normalization to positive and negative controls. A dose response series is implemented to determine EC50 values.

[6] = system: adult C. felis fleas; test: Ingestion activity against adult Ctenocephalides felis, membrane feeding, motility (Example 6); conditions: 48 h, bovine blood via artificial membrane, 48h post treatment, read-out: EC50 (ingestion activity, % motility reduction)
Protocol: Compounds of formulae (I), (Ia) and/or (Ib) dissolved in 100% DMSO are added to bovine blood and offered via an artificial membrane feeding system to adult C. felis fleas. The motility of fleas is then visually inspected 48h post treatment. Efficacy is expressed in % motility reduction compared to controls containing blood treated with DMSO only. A dose response series is implemented to determine EC50 values.

[7] = system: Laodelphax striatellus; test: Insecticidal test on Laodelphax striatellus (Example 16); type: in vivo; conditions: 192 h, rice seedling dip, 3rd-instar nymphs, 8 days after inoculation, read-out: activity level (corrected mortality rate)
Protocol: The compounds of formula (I), (Ia) and/or (Ib) of the present invention or salts thereof are separately dispersed in water and diluted to 500 ppm and 50 ppm. Rice plant seedlings are dipped in the dispersion for about 30 seconds. After air dried, the seedlings are put into a separate glass test tube and inoculated with ten 3rd-instar nymphs of Laodelphax striatellus and then the glass test tube is kept in a room at 25° C. 8 days after the inoculation, the numbers of the dead and alive insects are counted. The corrected mortality rate is calculated according to the following formula and the insecticidal activity is evaluated according to the following criteria.

[8] = system: adult R. sanguineus ticks; test: Contact activity against adult Rhipicephalus sanguineus (Example 5); conditions: coated vials, 48 hours post-treatment, read-out: EC50 (contact activity, percentage mortality)
Protocol: Compounds of formulae (I), (Ia) and/or (Ib) formulated in 100% DMSO are diluted in a solution containing acetone and Triton X-100 (0.02%). The resulting formulation is used to coat the inner walls of glass scintillation vials and the filter paper covering the cap of the vial. Once dried, ten adult R. sanguineus ticks are added to the vials. The vials are incubated at 24° C., 95% relative humidity, and 12 hours of light/12 hours of dark until evaluation. Ticks are visually evaluated for mortality at 48 hours post-treatment. Compound efficacy at a given dose is expressed as percentage mortality. A dose response series is implemented to determine EC50 values.

[9] = system: A. aegypti L1 larvae; test: Activity against larvae of Aedes aegypti (Example 3); conditions: 48 h at 27° C., read-out: EC50 (percentage of mortality, larvae)
Protocol: Eight A. aegypti L1 larvae in a total volume of 64 μL water are added to 384-well microplates containing compounds of formulae (I), (Ia) and/or (Ib) formulated in 100% DMSO. The plates are incubated for 48 h at 27° C. Individual well images are acquired and analyzed using a pipeline to quantitatively assess the amount of larvae biomass accumulating at the bottom of the well. The efficacy of a compound at a given dose is expressed as “percentage of mortality” and determined by comparison to average biomass descriptors of positive and negative control wells containing 1.0 μM Fipronil or DMSO only, respectively. Dose response assay are conducted to determine an EC50 value.

[10] = adult C. felis, bovine blood with sodium heparin, membrane feeding, 48 hours post-treatment, read-out: EC50 (ingestion activity, percentage mortality, alternative method)
[11] = alternative method according to Example 7, mortality at 48 hours post-treatment, read-out: C. felis membrane feeding (ingestion/blood feeding) activity EC50

SMILES	pEC50 [6]	mortality at 50 ppm [1] [%]	pEC50 [2]	mortality at 500 ppm [3] [%]	pest or weed control at 50 ppm [4] [%]	pEC50 [5, 10]	pEC50 [5, 11]	mortality at 50 ppm [7] [%]	mortality at 500 ppm [1] [%]	mortality at 50 ppm [3] [%]	pest or weed control at 500 ppm [4] [%]	pEC50 [8]	mortality at 500 ppm [7] [%]	pEC50 [9]
CCS(=N)(=O)c1cc(-c2cnn(C3CC3)c2)cnc1-c1nc2cc(C(F)(F)C(F)(F)F)cnc2n1C (centres unmarked) [Compound 22]	> 6.00	100	4.00 to 5.00	100	100	> 6.00	6.01	100	–	–	–	–	–	–
CCS(=N)(=O)c1cc(-c2cc(C3CC3)sn2)cnc1-c1nc2cc(C(F)(F)C(F)(F)F)cnc2n1C (centres unmarked) [Compound 25]	> 6.00	100	4.00 to 5.00	–	100	5.00 to 6.00	–	–	–	100	–	–	100	–
CCS(=N)(=O)c1cc(-c2noc(C3(C(F)(F)F)CC3)n2)cnc1-c1nc2cc(C(F)(F)C(F)(F)F)nnc2n1C (centres unmarked) [Compound 31]	> 6.00	100	> 5.00	–	100	> 6.00	7.11	100	–	–	–	4.00 to 5.00	–	> 7.40

More lines, main results first:

pEC50 [6]	SMILES	mortality at 50 ppm [1] [%]	pEC50 [2]	mortality at 500 ppm [3] [%]	pest or weed control at 50 ppm [4] [%]	pEC50 [5, 10]	pEC50 [5, 11]	mortality at 50 ppm [7] [%]	mortality at 500 ppm [1] [%]	mortality at 50 ppm [3] [%]	pest or weed control at 500 ppm [4] [%]	pEC50 [8]	mortality at 500 ppm [7] [%]	pEC50 [9]
> 6.00	CCS(=N)(=O)c1cc(-c2cc(C3CC3)on2)cnc1-c1nc2cc(C(F)(F)C(F)(F)F)cnc2n1C (centres unmarked) [Compound 24]	100	> 5.00	–	100	> 6.00	6.08	–	100	100	100	4.00 to 5.00	100	–
> 6.00	CCS(=N)(=O)c1cc(-n2cc(C3CC3)cn2)cnc1-c1nc2cc(C(F)(F)C(F)(F)F)cnc2n1C (centres unmarked) [Compound 27]	–	> 5.00	100	–	> 6.00	6.75	–	100	–	100	> 5.00	100	–
> 6.00	CCS(=N)(=O)c1cc(-c2cnn(C3CC3)c2)cnc1-c1nc2cc(C(F)(F)C(F)(F)F)nnc2n1C (centres unmarked) [Compound 30]	–	> 5.00	100	–	> 6.00	6.28	–	100	–	100	4.00 to 5.00	100	–
